Data published in patent publication US20220040122A1, “COMPOSITION FOR ALLERGY PREVENTION, ATOPIC DERMATITIS ALLEVIATION OR SKIN REGENERATION, CONTAINING, AS ACTIVE INGREDIENT, UNDECANE OR UNDECANAL” (BOTANICSENS, priority 2019, published 2022).
“Also recorded” adds a separate entry of the source.

How the values were obtained:
[1] = system: Keratinocytes (human keratinocyte cell line, HaCaT); assay: Inflammatory cytokine expression (real-time PCR) in TNF-α/IFN-γ-stimulated keratinocytes; format: cell-based; details: 24 h, vs immune-response-induced control
Method: (§1) Keratinocytes (human keratinocyte cell line, HaCaT) were purchased from ATCC (Manassas, Va., USA) and used. For cell culture, the culture medium of DMEM containing 10% fetal bovine serum (FBS) and antibiotics was used. The culture vessel used a 75T-flask and a 6-well plate, and cultured in a 37° C. incubator supplied with 5% CO2. The culture medium was changed every 3 to 4 days, and subculture was performed when the cells were excessively proliferated. The dispensed HaCaT cells (5×10^5/well) were cultured for 24 hours and then washed with PBS. In order to induce an immune response to keratinocytes, TNF-α (tumor necrosis factor-α) (10 ng/ml) and IFN-γ (interferon gamma) (10 ng/ml) were treated together in DMEM medium without FBS and incubated for 24 hours. At this time, in order to evaluate the efficacy of alleviating the immune response of undecane, 100 μM of undecane was simultaneously treated, and in the case of normal cells, DMSO instead of undecane, and in the case of positive control cells, 10 μM of tacrolimus instead of undecane were treated simultaneously with the immune response inducer and incubated for 24 hours.
(§2) After removing the supernatant of the mast cells that induced the immune response, 1 ml of trizol was added, left for 2 minutes, and chloroform was added, vortexed for 10 seconds, centrifuged at 5,000 rpm for 10 minutes, and the upper layer was taken, and mixed with the same amount of isopropanol and shaken. The supernatant was removed by centrifugation at 13,000 rpm for 25 minutes, and the pellet was dissolved in 20 μl of diethyl pyrocarbonate (DEPC)-DW and stored at −20° C. and then used in the experiment. RT-PCR was performed using a one-step RT-PCR PreMixkit (iNtRON Biotechnology, Korea) at 45° C. for 30 minutes and at 94° C. for 5 minutes, followed by denaturation at 94° C. for 30 seconds, and then after annealing at 55° C. for 30 seconds, the cycle of extension at 72° C. for 1 minute was repeated 32 times, and the last extension was performed at 72° C. for 5 minutes, and PiQ SYBR green supermix (Bio-Rad) and CFX Connect™ Real-Time PCR Detection System (Bio-Rad) was used to perform quantitative PCR, and the primer sequences used are as shown in Table 1.
as §1, with “undecanal,” for “undecane,”, “undecanal” for “undecane”
RNA isolation and real-time PCR (quantitative reverse-transcription polymerase chain reaction) using a Trizol method was performed by the same method as 3) RNA isolation using the Trizol method and real-time PCR of 1-1. of Example 1 described above.

[2] = system: Mast cells (rat basophilic leukemia cell line, RBL-2H3); assay: Inflammatory cytokine expression (real-time PCR) in anti-DNP-IgE/DNP-HSA-stimulated mast cells; format: cell-based; details: 1 h before DNP-HSA induction, vs immune-response-induced control
Method: Then, it was sensitized with anti-DNP (dinitrophenyl)-IgE (30 ng/ml) and cultured for 24 hours at 37° C., 5% CO2 in an incubator. After washing twice with PBS (phosphate buffered saline), DNP-HSA (dinitrophenylated human serum albumin; 10 μg/ml) was treated for 4 hours to induce an immune response. In addition, in order to evaluate atopy alleviating effect by undecane, mast cells treated with anti-DNP (dinitrophenyl)-IgE and cultured for 24 hours were treated with 100 μM of undecane, cultured for 1 hour, and then an immune response was induced with DNP-HSA. Normal cells were treated with DMSO instead of undecane under the same conditions as undecane-treated cells, and positive control cells were treated with 10 μM of tacrolimus instead of undecane and cultured for 1 hour, and then, an immune response was induced with DNP-HSA.
as §2, with “1. […]” for “1.”
Then, it was sensitized with anti-DNP (dinitrophenyl)-IgE (30 ng/ml) and cultured for 24 hours at 37° C., 5% CO2 in an incubator. After washing twice with PBS (phosphate buffered saline), DNP-HSA (dinitrophenylated human serum albumin; 10 μg/ml) was treated for 4 hours to induce an immune response. In addition, in order to evaluate an effect of alleviating atopy by undecanal, mast cells treated with anti-DNP (dinitrophenyl)-IgE and cultured for 24 hours were treated with 100 μM of undecanal, cultured for 1 hour, and then an immune response was induced with DNP-HSA. Normal cells were treated with DMSO instead of undecanal under the same conditions as undecanal-treated cells, and positive control cells were treated with 10 μM of tacrolimus instead of undecanal and cultured for 1 hour, and then, an immune response was induced with DNP-HSA. […]

rats [3] = details: rat, in vivo, po; cited from earlier work
rats [4] = details: chronic oral administration; cited from earlier work
rats [5] = details: cited from earlier work
[6] = 100 μM test compound together with TNF-α and IFN-γ
[7] = positive control 10 μM together with TNF-α and IFN-γ

| Structure (SMILES) | expression of IL-1β [1, 6] | expression of IL-6 [1, 6] | expression of IL-8 [1, 6] | expression of IL-4 ([2]; 100 μM test compound) | expression of IL-13 ([2]; 100 μM test compound) | expression of TNF-α ([2]; 100 μM test compound) | LD50 (lethal dose, 50%) (rats [3]) | no-observed-adverse-effect level (NOAEL) (rats [4]) | expression of IL-1β [1, 7] | expression of IL-6 [1, 7] | expression of IL-8 [1, 7] | expression of IL-4 ([2]; positive control 10 μM) | expression of IL-13 ([2]; positive control 10 μM) | expression of TNF-α ([2]; positive control 10 μM) | LD50 (lethal dose, 50%) for inhalation toxicity (rats [5]) |
| --- | --- | --- | --- | --- | --- | --- | --- | --- | --- | --- | --- | --- | --- | --- | --- |
| CCCCCCCCCCC=O [undecanal] | significantly reduced; also recorded: remarkably reduced | significantly reduced; also recorded: remarkably reduced | significantly reduced; also recorded: remarkably reduced | significantly reduced; also recorded: remarkably reduced | significantly reduced; also recorded: remarkably reduced | significantly reduced; also recorded: remarkably reduced | > 5,000 mg/kg bw/day | about 1000 mg/kg bw | – | – | – | – | – | – | – |
| C=CC[C@@H]1/C=C(\C)C[C@H](C)C[C@H](OC)[C@H]2O[C@@](O)(C(=O)C(=O)N3CCCC[C@H]3C(=O)O[C@H](/C(C)=C/[C@@H]3CC[C@@H](O)[C@H](OC)C3)[C@H](C)[C@@H](O)CC1=O)[C@H](C)C[C@@H]2OC [tacrolimus, reference compound] | – | – | – | – | – | – | – | – | significantly reduced | significantly reduced | significantly reduced | significantly reduced | significantly reduced | significantly reduced | – |
| CCCCCCCCCCC [undecane] | significantly reduced; also recorded: remarkably reduced | significantly reduced; also recorded: remarkably reduced | significantly reduced; also recorded: remarkably reduced | significantly reduced; also recorded: remarkably reduced | significantly reduced; also recorded: remarkably reduced | significantly reduced; also recorded: remarkably reduced | – | – | – | – | – | – | – | – | about 442 ppm/8H |
